Experimental data: publication PMC10974743, “Design, Synthesis, and Biological Evaluation of Novel Phenoxy Acetic Acid Derivatives as Selective COX-2 Inhibitors Coupled with Comprehensive Bio-Pharmacological Inquiry, Histopathological Profiling, and Toxicological Scrutiny” (Molecules, 2024)
“Also recorded” adds a separate entry of the source. Marks after values point to notes of the source that are not given here.

Columns and labels:
TNF-α = TNF-α content of paw exudate by ELISA, carrageenan paw edema model; format: in vivo, Sprague Dawley rats; settings: vs carrageenan group
Description: (§1) ELISA assessment assays were conducted as cited (Supplementary Materials, page 53).
(§2) In-vivo anti-inflammatory activity […]
(§3) cervical dislocation. […] The percentage
(§4) Weight of the left paw] ×100.
(§5) Assessment of inflammatory biomarkers using ELISA […]
(§6) content, using enzyme -linked immunosorbent assay (ELISA). The ELISA kits were purchased from CLOUD -CLONE CORP (CCC, USA) (Cat# SEA133Ra) and MyBioSource company (British Columbia, Canada) (Cat# MBS730592) respectively, and the assays were performed following the manufacturer' s instructions. Additionally, the protein content of the exudates was determined using the Bradford method.

PGE2 = PGE2 content of paw exudate by ELISA, carrageenan paw edema model; format: in vivo, Sprague Dawley rats; settings: vs carrageenan group
Description: as §1, §2, §3, §4, §5, §6

[1] = tested on: nociceptive responses on hot plate; assay: Hot plate latency test (analgesic activity); format: in vivo, rats; settings: for Hot plate latency period: plate 50 °C, mean ± SD, n = 6
Description: The hot plate latency test was performed according to the following procedures (Supplementary Materials, page 54). […]
In summary, thirty rats
The normal control group received 1% CMC, while the remaining groups were administered their respective reference or test compounds. Each rat was gently positioned on a heated plate set at 50 ◦C. The latency period for nociceptive responses, such as paw licking or jumping off the hot plate, was recorded at 30-, 60-, 90-, and 120 minutes post-administration of the reference drugs, test […]

[2] = tested on: paw tissue, carrageenan paw edema model; assay: Histopathological examination of paws, inflammatory cell infiltration score; format: in vivo, rats
Description: The histopathological assessments were performed according to the following procedures (Supplementary Materials, page 54). […]
Histopathological examination
Thirty-six rats were separated into six groups of six rats each for histological assessment […]
groupings consisted of a control group, a carrageenan group, two groups for the reference drugs […]
protocols that were utilized in the in-vivo anti-inflammatory activity test were used. After a duration of 5 hours, the animals were euthanized, and their left paws were amputated. The paws were preserved in 10% neutral buffered formalin, trimmed, washed, dehydrated in increasing concentrations of ethyl alcohol, clarified in xylene, and ultimately embedded in paraffin. They were then sliced into 4-6µ thick slices, stained with Hematoxylin and Eosin, and examined under a light microscope. A scoring system was used to evaluate the degree of inflammation, dividing it into six categories ranging from 0 indicating no inflammation to 5 indicating severe inflammation.
Each score corresponded to a certain level of inflammation: 0 for no inflammation, 1 for mild inflammation, 2 for mild to moderate inflammation, 3 for moderate inflammation, 4 for moderate to severe inflammation, and 5 for severe inflammation.

[3] = Assessment of liver and kidney function (serum ALT, AST, creatinine, urea); format: in vivo, rats; set-up: Urea: unit not given here; settings: mean ± SD
Description: These assessments were conducted following the manufacturer’s instructions (Supplementary Materials, page 55).
In-vivo anti-inflammatory activity
as §3, §4
Assessment of inflammatory biomarkers using ELISA

COX-2 = settings: cited from earlier work
[4] = tested on: carrageenan-induced paw edema; assay: Carrageenan paw edema test (paw thickness, paw weight); settings: for Paw thickness difference: oral; for Percentage of inhibition of paw thickness: vs carrageenan group
Description: The carrageenan paw edema test was conducted following established procedures as detailed (Supplementary Materials, page 53).
The carrageenan paw edema test was conducted following established procedures. In summary, seventy-two rats were randomly assigned to twelve groups, each comprising six rats.
These groups included normal controls, carrageenan controls (both receiving the vehicle; 1%
Acute inflammation was induced in the right hind paws of all rats one hour after oral administration of the respective compounds or vehicle. This was achieved by injecting a freshly prepared 0.1 mL carrageenan suspension (1% in normal saline) subplantarly into the right hind paw, except for the normal control group, which received a saline injection. Paw thickness was measured hourly (Ct) until the fifth hour (C5) post-carrageenan injection (C0). The hourly increase in paw thickness (paw thickness difference) was calculated by subtracting the initial measurement (C0) from the thickness at each hour (Ct), and the results were presented as the mean increase in paw thickness (mm). To evaluate anti-inflammatory effects, the percentage of inhibition for each standard and test compound was determined using the formula: percentage of inhibition (%) = [(Paw thickness difference of carrageenan group - Paw thickness difference of treated)/ Paw thickness difference of carrageenan group] × 100. […] The paws were then excised and weighed (both left and right). The percentage of weight increase between the left and right paws of each animal was calculated using the equation: Percentage of weight increase = [(Weight of the right paw - Weight of the left paw) / Weight of the left paw] ×100.

ovine COX-1 = molecular target: T1, ovine COX-1 (Ovis aries, UniProt P05979); assay: In vitro COX-1 inhibition assay (Cayman colorimetric COX inhibitor screening kit)
T1 sequence (P05979 25-600): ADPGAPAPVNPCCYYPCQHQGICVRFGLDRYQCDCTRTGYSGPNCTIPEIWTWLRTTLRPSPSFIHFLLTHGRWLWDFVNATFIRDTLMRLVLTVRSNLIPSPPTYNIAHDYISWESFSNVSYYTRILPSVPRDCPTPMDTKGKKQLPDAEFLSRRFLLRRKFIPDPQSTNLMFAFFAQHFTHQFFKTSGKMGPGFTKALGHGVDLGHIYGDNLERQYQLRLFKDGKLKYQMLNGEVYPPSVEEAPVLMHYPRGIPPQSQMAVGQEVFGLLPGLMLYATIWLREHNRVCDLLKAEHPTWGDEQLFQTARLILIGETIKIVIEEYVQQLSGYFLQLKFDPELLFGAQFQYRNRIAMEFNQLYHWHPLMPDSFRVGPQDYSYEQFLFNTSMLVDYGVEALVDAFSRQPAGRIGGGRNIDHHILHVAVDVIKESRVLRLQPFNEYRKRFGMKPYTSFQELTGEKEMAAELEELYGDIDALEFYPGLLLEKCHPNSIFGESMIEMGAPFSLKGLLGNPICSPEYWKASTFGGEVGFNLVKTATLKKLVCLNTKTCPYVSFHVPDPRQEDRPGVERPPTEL
Description: (§7) The in vitro enzyme assays were performed at the Biochemistry Department, Cairo
(§8) General Hospital, Egypt. Cayman® colorimetric COX (ovine) inhibitor screening assay kit (Item
(§9) enzymes in presence of all newly compounds. Generally, this kit is dependent on the reductive
(§10) reaction of COX. A specific antibody binds to PGH2 produced by COX and is further quantified
(§11) by the ELISA technique as previously reported. After that, the selectivity index (SI) was calculated
as the following equation:
𝐒𝐞𝐥𝐞𝐜𝐭𝐢𝐯𝐢𝐭𝐲 𝐢𝐧𝐝𝐞𝐱 (𝐒𝐈) = 𝐈𝐂₅₀𝐨𝐟 𝐂𝐎𝐗 − 𝟏

human COX-2 = molecular target: T2, human COX-2 (Homo sapiens, UniProt P35354); assay: In vitro COX-2 inhibition assay (Cayman colorimetric COX inhibitor screening kit)
T2 sequence (P35354 18-604): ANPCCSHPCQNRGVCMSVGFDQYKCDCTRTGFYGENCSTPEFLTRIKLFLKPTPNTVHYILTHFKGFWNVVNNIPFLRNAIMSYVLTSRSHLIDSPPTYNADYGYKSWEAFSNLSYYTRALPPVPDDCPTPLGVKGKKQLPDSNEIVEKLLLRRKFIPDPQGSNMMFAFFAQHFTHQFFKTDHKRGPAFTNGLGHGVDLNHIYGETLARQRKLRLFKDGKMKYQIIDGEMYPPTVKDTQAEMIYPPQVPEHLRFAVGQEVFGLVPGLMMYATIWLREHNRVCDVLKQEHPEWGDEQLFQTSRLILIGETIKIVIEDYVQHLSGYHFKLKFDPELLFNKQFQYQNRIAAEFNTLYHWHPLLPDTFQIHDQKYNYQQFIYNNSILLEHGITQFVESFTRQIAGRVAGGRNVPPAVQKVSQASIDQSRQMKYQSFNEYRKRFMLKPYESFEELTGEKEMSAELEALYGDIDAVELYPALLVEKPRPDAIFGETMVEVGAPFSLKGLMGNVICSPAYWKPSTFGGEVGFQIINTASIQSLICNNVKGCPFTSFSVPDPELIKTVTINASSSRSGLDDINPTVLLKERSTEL
Description: as §7, §8, §9, §10, §11
as the following equation:
𝐒𝐞𝐥𝐞𝐜𝐭𝐢𝐯𝐢𝐭𝐲 𝐢𝐧𝐝𝐞𝐱 (𝐒𝐈) = 𝐈𝐂₅₀𝐨𝐟 𝐂𝐎𝐗 − 𝟏

gastric mucosa = assay: Evaluation of ulcerogenic effects (macroscopic scores and gastric histopathology)
Description: The assessment of ulcerogenic effects was conducted following established procedures [42, 57]
Following the experimental period, the animals were euthanized using pentobarbital sodium (100 mg/kg), and blood was collected via jugular vein exsanguination for later evaluation of liver and kidney function, and subsequently sacrificed by cervical dislocation. […] Following this, the animals' stomachs were removed, inflated, and opened along the greater curvature to evaluate ulcerogenic effects.
B: Ulcer lesion severity scoring system
2.5 More than 10 small ulcers
3 1 marked ulcer plus 0 to 4 small ulcers
3.5 1 marked ulcer plus 5 or more small ulcers
4 2 marked ulcers plus 0 to 4 small ulcers
4.5 2 marked ulcers plus 5 or more small ulcers
5 3 or more marked ulcers
The statistical analysis of the data was conducted using GraphPad Prism 9.5.1 Demo
(GraphPad Software, San Diego, CA). One -way analysis of variance (ANOVA) was utilized to
evaluate differences among the various groups, except for paw edema volume, which un derwent
analysis using two -way ANOVA. Post -hoc analysis was performed using Tukey's multiple
significance set at P < 0.05

[5] = compared to the normal control group

## Cc1cccc(Nc2ccccc2C(=O)O)c1C [Mefenamic acid, mefenamic acid, reference compound]
TNF-α
  Reduction of TNF-α exudate content: 60.09%
PGE2
  Reduction of PGE2 exudate content: 59.37%
[1]; 30 min post-administration
  Hot plate latency period: 9.95 ± 0.35 ^ab
[1]; 60 min mark
  Increase in latency period: 58.38%
[1]; 60 min post-administration
  Hot plate latency period: 11.58 ± 0.25 ^ab
[1]; 90 min post-administration
  Hot plate latency period: 12.83 ± 0.36 ^ab
[1]; 120 min post-administration
  Hot plate latency period: 13.73 ± 0.42 ^a
[2]; H&E staining, carrageenan paw edema
  Paw histopathological finding: infiltration of dermis by high number of inflammatory cells mainly lymphocytes and eosinophils; also recorded: significant cutaneous infiltration by inflammatory cells
[2]; vs carrageenan group, paw, 5 hours
  Reduction in inflammatory cell infiltration score: 37.04%
[3]; n = 6
  ALT: 88.84 ± 6.09 IU/L
  AST: 97.51 ± 8.08 IU/L
  AST/ALT: 1.10 ± 0.15
  Urea: 27.58 ± 2.08
[3]; n = 6, in mg/dL (unit assumed)
  Creatinine: 0.72 ± 0.05
COX-2
  IC50: 5.3 µM
[4]; 1st h after carrageenan, mean ± SD, n = 6
  Paw thickness difference: 1.22 ± 0.19 mm
[4]; 1st h
  Percentage of inhibition of paw thickness: 38.43%
[4]; 2nd h after carrageenan, mean ± SD, n = 6
  Paw thickness difference: 2.27 ± 0.11 mm
[4]; 2nd h
  Percentage of inhibition of paw thickness: 31.22%
[4]; 3rd h after carrageenan, mean ± SD, n = 6
  Paw thickness difference: 2.86 ± 0.11 mm
[4]; 3rd h
  Percentage of inhibition of paw thickness: 32.37%
[4]; 4th h after carrageenan, mean ± SD, n = 6
  Paw thickness difference: 3.22 ± 0.19 mm
[4]; 4th h
  Percentage of inhibition of paw thickness: 36.16%
[4]; 5th h after carrageenan, mean ± SD, n = 6
  Paw thickness difference: 3.51 ± 0.07 mm
[4]; 5th h
  Percentage of inhibition of paw thickness: 33.89%
[4]; right vs left paw, after 5 h, mean ± SD, n = 6
  Paw Weight Increase: 34.08 ± 2.27 ^ab %
Ovine COX-1
  IC50: 29.9 ± 0.09 µM
Human COX-2; COX-1 (IC50)/COX-2 (IC50)
  SI (COX-2 selectivity index): 15.10
Human COX-2; COX-2 IC50, mean ± SEM, n = 3
  IC50: 1.98 ± 0.02 µM
Gastric mucosa; H&E staining
  Gastric mucosa histopathological finding: ulcer formation with desquamation of gastric mucosal epithelium; also recorded: ulcer development and desquamation of the stomach mucosal epithelium
Gastric mucosa; [5]
  Increase in ulcer number: 233.33%
  Increase in ulcer severity score: 366.67%
Gastric mucosa; mean ± SD, n = 6
  Ulcer Number Score: 1.67 ± 0.82 ^a
Gastric mucosa; mean ± SD, n = 6, scale 0 to 5
  Ulcer Severity Score: 1.17 ± 0.61 ^a
